Like-named read-outs stand apart in the source and are kept apart here. Ends that are not written are not given here. A value given as a limit tells only on which side of the number the result lay.

This is an account of results in EP1388586A2, “Identification of broadly reactive DR restricted epitopes” (priority 1998, dated 1999).

One assay addresses T1, DRB1*1501 (DR2w2b) (Homo sapiens, UniProt P01903+P01911).
T1 construct: expressed in transfected cells; host or cells: L466.1 transfected fibroblasts
Put plainly: Class II peptide-binding assay, DR2w2b (DR2w2B1).

Assay [1] has as its system panel of purified HLA DR molecules. In kind it is binding, human.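 Also: competitive inhibition of radiolabeled probe peptide binding to purified HLA DR molecules, with inhibitory potency of unlabeled peptides taken as an approximation of affinity.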
Procedure: (§1) Class II peptide-binding assays. […] These assays were chosen as to be representative of the most common DR alleles.
(§2) Radiolabeled peptides were iodinated using the chloramine-T method. […] In appropriate stoichiometric conditions, the IC50 of an unlabeled test peptide to the purified DR is a reasonable approximation of the affinity of interaction (Kd). Peptides were tested in two to four completely independent experiments. […] Final detergent concentration in the incubation mixture was 0.05% Nonidet P-40. Assays were performed at pH 7.0 with the exception of DR3, which was performed at pH 4.5, and DRw53, which was performed at pH 5.0.
(§3) All subsequent inhibition and direct binding assays were the performed using these class II concentrations.
The target of another assay is T2, DRB1*0901 (DR9) (Homo sapiens, UniProt P01903+P01911, A100R/A103E/D57H/D86V/F55Y/F60I/F76Y/I96F/K127E/L162R/M171V/P40D/Q125H/Q99R/R33Q/R42F/S133A/S66N/T210M/V115G/W38K/Y107V/Y59G/Y89S).
T2 construct: used as sources of human HLA class II molecules; endogenous in cells; host or cells: HTC9074 (EBV-transformed homozygous B cell line); gift of Dr. Paul Harris
The assay is described as follows: Class II peptide-binding assay, DR9. The conditions noted are these: Table V A) Non Predictions; read-out: Binding Capacity DR9.

Another assay has as its target DRB1*0405 (DR4w15) (Homo sapiens, UniProt P01903+P01911, A100R/A169T/D86S/F76Y/I96L/K127E/L162R/M171V/N62H/P40V/Q125Y/R42H/S133A/S149N/S66Y/V115G/V209L/W38E). The assay is described as follows: Class II peptide-binding assay, DR4w15.
The target in a further assay is T3, DRB1*1101 (DR5w11) (Homo sapiens, UniProt P01903+P01911, A100R/A169T/A87E/I96F/K41T/L162R/M171V/P40S/Q125H/Q178H/Q39Y/Q99D/R42S/S66Y/T262R/V115G/W38E).
T3 construct: used as sources of human HLA class II molecules; endogenous in cells; host or cells: SWEIG (EBV-transformed homozygous B cell line)
T3 sequence (P01903 26-254, other chains not shown): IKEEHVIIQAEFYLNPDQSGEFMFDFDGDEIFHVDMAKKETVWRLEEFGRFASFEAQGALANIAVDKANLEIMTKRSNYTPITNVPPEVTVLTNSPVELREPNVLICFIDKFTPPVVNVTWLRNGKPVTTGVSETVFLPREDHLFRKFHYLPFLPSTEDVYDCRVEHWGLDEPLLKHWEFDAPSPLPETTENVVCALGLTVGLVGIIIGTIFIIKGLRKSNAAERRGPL
Put plainly: Class II peptide-binding assay, DR5w11.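 Also: competition by unlabeled test peptide against iodinated probe peptide binding to affinity-purified HLA-DR, class II amount titrated beforehand, half-maximal inhibitory concentration read as approximate Kd.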

In a further assay the target is T4, DRB1*0101 (DR1) (Homo sapiens, UniProt P01903+P01911, A100R/D57E/F55L/F60I/F76Y/I96L/L162R/M171V/P40L/Q125E/R42F/V115G/Y59C).
T4 construct: used as sources of human HLA class II molecules; endogenous in cells; host or cells: LG2 (EBV-transformed homozygous B cell line)
Put plainly: Class II peptide-binding assay, DR1.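 Also: competition assay: unlabeled test peptides inhibit binding of a radiolabeled probe peptide to purified DR, with half-maximal inhibition taken as an approximate dissociation constant Kd.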

A further assay concerns the target DRB1*0701 (DR7) (Homo sapiens, UniProt P01903+P01911, A100R/A102G/A103Q/D57E/D86V/E43K/F76Y/K127E/L162R/M171V/P40G/Q125H/Q99D/R33Q/R42Y/R54Q/S133A/S66F/T210M/V115G/Y107V/Y59L/Y89S). The assay is described as follows: Class II peptide-binding assay, DR7.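 Also: unlabeled peptides compete with an iodinated probe peptide for binding to affinity-purified HLA-DR at neutral pH, DR amount titered to bind a small tracer fraction, IC50 approximating Kd.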
The target in a further assay is T5, DRB1*0401 (DR4w4) (Homo sapiens, UniProt P01903+P01911, A100K/A169T/F76Y/I96L/K127E/L162R/M171V/N62H/P40V/Q125Y/R42H/S133A/S149N/S66Y/V115G/V209L/W38E).
T5 construct: used as sources of human HLA class II molecules; endogenous in cells; host or cells: PREISS (EBV-transformed homozygous B cell line)
Put plainly: Class II peptide-binding assay, DR4w4.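 Also: unlabeled test peptides compete with a radiolabeled probe peptide for binding to affinity-purified HLA-DR, with DR amount titrated to capture a small fraction of label, IC50 approximating Kd.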

The next assay deals with T6, DRB1*0802 (DR8w2) (Homo sapiens, UniProt P01903+P01911, A100R/A103L/A169T/F76Y/H45Y/I96F/K41T/L162R/M171V/P40S/Q125H/Q178H/Q39Y/Q99D/R218S/R42G/S66Y/V115G/W38E).
T6 construct: used as sources of human HLA class II molecules; endogenous in cells; host or cells: OLL (EBV-transformed homozygous B cell line)
The assay is described as follows: Class II peptide-binding assay, DR8w2.

A further assay concerns the target T7, DRB5*0101 (DR2w2a) (Homo sapiens, UniProt P01903+Q30154).
T7 construct: used as sources of human HLA class II molecules; endogenous in cells; host or cells: GM3107 (EBV-transformed homozygous B cell line)
The assay is described as follows: Class II peptide-binding assay, DR2w2a (DR2w2B2).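 Also: competitive binding assay: unlabeled peptide inhibiting binding of a radiolabeled probe peptide to purified DR molecules at pH 7.0, IC50 approximating Kd, lower means stronger binding.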

The next assay has as its target DRB1*1302 (DR6w19) (Homo sapiens, UniProt P01903+P01911, A100E/A169T/K41T/L162R/M171V/P40S/Q125H/Q178H/Q39Y/Q99D/R42S/S66N/T262R/V115G/W38E/Y61H). Type of assay: binding.
For a further assay, the target named is T8, DRB1*1201 (DR5w12) (Homo sapiens, UniProt P01903+P01911, A100R/A169T/D57E/D86V/F55L/H45Y/K41T/L162R/M171V/P40S/Q125H/Q178H/Q39Y/Q99D/R42G/S66L/T262R/V114A/V67L/W38E/Y59H/Y61H/Y89S).
T8 construct: used as sources of human HLA class II molecules; endogenous in cells; host or cells: Herluf (EBV-transformed homozygous B cell line)
The assay is described as follows: Class II peptide-binding assay, DR5w12. The conditions noted are these: Table V B) Correct Predictions; read-out: Binding Capacity (IC50% nM) DR5w12.

Where [2] appears, read: read-out: In IC50 Format DR2w2B1 nM, Table VIII, values in parentheses read as lower bounds.
Where [3] appears, read: read-out: In IC50 Format DR2w2B2 nM, Table VIII, values in parentheses read as lower bounds.
[4] abbreviates: read-out: In IC50 Format DR5w11 nM, Table VIII, values in parentheses read as lower bounds.
Where [5] appears, read: read-out: In IC50 Format DR1 nM, Table VIII, values in parentheses read as lower bounds.
The mark [6] stands for this setting: read-out: In IC50 Format DR7 nM, Table VIII, values in parentheses read as lower bounds.
Where [7] appears, read: read-out: In IC50 Format DR8w2 nM, Table VIII, values in parentheses read as lower bounds.
Where [8] appears, read: Table V B) Correct Predictions, read-out: Binding Capacity (IC50% nM) DR4w15.
[9] abbreviates: Table V B) Correct Predictions, read-out: Binding Capacity (IC50% nM) DR1.

Sequence of DRB1*1302 (DR6w19) (P01903 26-254, other chains not shown): as above
Procedure for DRB1*0401 (DR4w4): as §1, §2, §3
Procedure for DRB1*0405 (DR4w15): as §1, §2, §3
DR4w15. The β4 product DRw53 is co-expressed with DR4w15 and the determination of the specificity of the DR4w1 binding assay is complicated in that the same radiolabeled ligand is used for both the DR4w15 and DRw53 binding assays.
Procedure for DRB1*0802 (DR8w2): as §1, §2, §3
DR8w2 and DR8w3. The β1 specificity of the DR8w2 and DR8w3 assays is obvious in that no β3 (and/or B4 and β5) molecule is expressed.
Procedure for DRB1*0901 (DR9): as §1
(§4) In appropriate stoichiometric conditions, the IC50 of an unlabeled test peptide to the purified DR is a reasonable approximation of the affinity of interaction (Kd). Peptides were tested in two to four completely independent experiments. […] Final detergent concentration in the incubation mixture was 0.05% Nonidet P-40. Assays were performed at pH 7.0 with the exception of DR3, which was performed at pH 4.5, and DRw53, which was performed at pH 5.0.
as §3
Procedure for DRB1*1101 (DR5w11): as §1, §2, §3
Procedure for DRB1*1201 (DR5w12): as §1, §4, §3
Procedure for DRB1*1302 (DR6w19): The lysates were cleared of debris and nuclei by centrifugation at 10,000 x g for 20 min.
Affinity purification of HLA-DR molecules.
as §1, §2, §3
DR6w19. The DR6w19 assay utilizes as the source of class II molecules the EBV transformed homozygous cell line H0301, which co-expresses DRB30301 (DR52a). While the radiolabeled ligand used in the DR6w19 assay is different than that used for the DR52a assay, the ligand is related (i.e., is a single substitution analog) to a high affinity DR52a binder. As was done in the case of DR4w15, the specificity of the assay was investigated by analyzing the binding capacity of a panel of naturally occurring peptides for DR6w19 and DR52a.
Procedure for DRB1*1501 (DR2w2b): as §1, §4, §3
Procedure for DRB5*0101 (DR2w2a): as §1, §2, §3

Consider LFHYYFLSEKAPGSTV [Peptide 1136.04], for which the IC50 was 1.26 µM on DRB1*1501 (DR2w2b) (Table V A) Non Predictions, read-out: Binding Capacity DR2w2b); 2.89 µM at DRB1*0901 (DR9); 563 nM on DRB1*0405 (DR4w15) (Table V A) Non Predictions, read-out: Binding Capacity DR4w15); 0.069 µM at DRB1*1101 (DR5w11) (Table V A) Non Predictions, read-out: Binding Capacity DR5w11); 24 nM on DRB1*0101 (DR1) (Table V A) Non Predictions, read-out: Binding Capacity DR1); 3330 nM on DRB1*0701 (DR7) (Table V A) Non Predictions, read-out: Binding Capacity DR7). Moreover, the IC50 on DRB1*0401 (DR4w4) (Table V A) Non Predictions, read-out: Binding Capacity DR4w4) is 20 nM; on DRB1*0802 (DR8w2) (Table V A) Non Predictions, read-out: Binding Capacity DR8w2), 55 nM. In addition, in assay [1] ("non-predictions" peptides, beyond DR1, 4w4 or 7), the “additional DR types bound” value is “DR2w2 β2, DR4w15, 5w11 and 8w2”. Besides, the “Total Alleles Bound” value in assay [1] (Table V A) Non Predictions, 12 DR molecules listed) is listed as 6.

Consider `CC(C)C[C@H](NC(=O)[C@H](C)NC(=O)[C@H](CCC(N)=O)NC(=O)[C@H](Cc1c[nH]cn1)NC(=O)[C@@H]1CCCN1C(=O)[C@H](CC(N)=O)NC(=O)[C@H](CCCNC(=N)N)NC(=O)[C@H](Cc1ccccc1)NC(=O)[C@H](CC(C)C)NC(=O)[C@H](CCC(N)=O)NC(=O)[C@H](CC(=O)O)NC(=O)[C@@H](N)Cc1c[nH]c2ccccc12)C(=O)N[C@@H](CC(C)C)C(=O)N[C@@H](Cc1c[nH]cn1)C(=O)N[C@H](C(=O)O)[C@@H](C)O` [Peptide 39.0354], for which the IC50 was 6.07 µM on DRB1*1501 (DR2w2b) (setting [2]); more than 28600 nM at DRB5*0101 (DR2w2a) (setting [3]); more than 25 µM on DRB1*1101 (DR5w11) (setting [4]); more than 50000 nM on DRB1*0101 (DR1) (setting [5]); more than 14700 nM on DRB1*0701 (DR7) (setting [6]); more than 54400 nM at DRB1*0802 (DR8w2) (setting [7]).

In the case of RVYQEPQVSPPQRAET [Peptide 1136.59.01a], the “Total Alleles Bound” value in assay [1] stood at 3. The IC50 on DRB1*0405 (DR4w15) (setting [8]) is 3140 nM; on DRB1*0101 (DR1) (setting [9]), 130 nM.

With ARLLDIDETEYHADG [Peptide 39.0366], the IC50 at DRB1*1501 (DR2w2b) (setting [2]) was more than 15.2 µM; at DRB1*1302 (DR6w19) (read-out: In IC50 Format DR6w19 nM, Table VIII, values in parentheses read as lower bounds), more than 35000 nM; at DRB5*0101 (DR2w2a) (setting [3]), more than 28600 nM; on DRB1*1101 (DR5w11) (setting [4]), more than 25 µM; at DRB1*0101 (DR1) (setting [5]) it was 50000 nM; at DRB1*0701 (DR7) (setting [6]) it was more than 14700 nM. On DRB1*0802 (DR8w2) (setting [7]), the IC50 was more than 54400 nM.

In the case of LAAIIFLFGPPTALRS [Peptide 1136.28], the IC50 on DRB1*1201 (DR5w12) was 4480 nM; on DRB1*1302 (DR6w19) (Table V B) Correct Predictions, read-out: Binding Capacity (IC50% nM) DR6w19), 3180 nM; at DRB5*0101 (DR2w2a) (Table V B) Correct Predictions, read-out: Binding Capacity (IC50% nM) DR2w2a), 1480 nM; on DRB1*0405 (DR4w15) (setting [8]), 6670 nM; at DRB1*0101 (DR1) (setting [9]) it was 0.23 nM; at DRB1*0701 (DR7) (Table V B) Correct Predictions, read-out: Binding Capacity (IC50% nM) DR7), 3620 nM. Besides, the IC50 is 849 nM on DRB1*0401 (DR4w4) (Table V B) Correct Predictions, read-out: Binding Capacity (IC50% nM) DR4w4) and 7540 nM on DRB1*0802 (DR8w2) (Table V B) Correct Predictions, read-out: Binding Capacity (IC50% nM) DR8w2). The “Total Alleles Bound” value in [1] is reported as 3.
